Measurements reported in patent publication US20250051293A1, “NOVEL OXADIAZOLE DERIVATIVE AND USE THEREOF” (CELROS BIOTECH, priority 2021, published 2025).

How the values were obtained:
BV2 cells = assay: NOX inhibition assay in BV2 cells (LPS-induced reactive oxygen species, lucigenin); format: cell-based, mouse; details: BV2 cells pre-treated 30 minutes, LPS 10 ng/ml, 0-10000 nM
Description: BV2 cells, a mouse microglial cell line, were washed with Hank's balanced salt solution (HBSS) and stabilized by incubation at 37° C. in HBSS for 30 minutes. Then, the compounds (compound of Example 1 or compound of Example 2) were treated at various concentrations (0 nM, 1 nM, 10 nM, 100 nM, 1000 nM, and 10000 nM). After 30 minutes, 10 ng/ml of lipopolysaccharide (LPS) and 200 μM of lucigenin were added to the cells. Lucigenin chemiluminescence induced by active oxygen (reactive oxygen species) was detected at 10-second intervals for 15 minutes using a luminometer (GLOMA, Promega).

[1] = Cytotoxicity experiment (MTT assay) HepG2; format: cell-based; details: human, HepG2 cells
Description: (§1) HepG2 (human hepatocellular carcinoma) and HT-22 (mouse hippocampal neuronal cell line) were seeded at densities of 1×10^5 or 1.5×10^4 per well in a 48-well plate and incubated for at least 12 hours, then treated with compounds of Example 1 and Example 2 at various concentrations (0 nM, 1 nM, 10 nM, 100 nM, 1000 nM, 10000 nM, 100000 nM, and 1000000 nM) and incubated for 24 hours. MTT solution (Thiazolyl Blue Tetrazolium Bromide 2 mg/ml) was subsequently added at 30 μl per well. After incubation for 4 hours, the culture medium containing the MTT solution was removed and 300 μl of DMSO was added to dissolve the MTT-formazan. 100 μl of the solution in each well was transferred to a 96-well plate and the absorbance was measured at 570 nm. IC50 values were calculated with Graph-Pad Prism 5 (GraphPad Software). The cell viability of the groups treated with the compounds of Example 1 and Example 2 at each concentration was determined relative to control group in which HepG2 cells were treated with DMSO alone, in at least five replicates.

[2] = Cytotoxicity experiment (MTT assay) HT-22; format: cell-based; details: mouse, HT-22 cells
Description: as §1

PAMPA-BBB assay = format: in vitro ADME; details: incubation 4 hr, pH 7.4, 25° C., U.V, read-out: Permeability Pe
Description: The parallel artificial membrane permeability assay (PAMPA) was performed to determine the brain barrier blood (BBB) permeability. […] For the Blank measurement, the donor buffer was dispensed into a high sensitivity UV plate at 150 μl per well and the UV values were measured (Blank sample). For the initial value measurement, the mixture in the deep well plate was dispensed 150 μl per well into the UV plate and the UV values were measured (initial sample). Next, 200 μl of the test compound mixture was dispensed onto the donor plate of the PAMPA sandwich, and the acceptor plate of the PAMPA sandwich was inverted and the membrane was coated with 5 μl of BBB-lipid solution. Then, 200 μl of acceptor sink buffer was added to each well of the acceptor plate, and the acceptor plate and donor plate were combined and incubated at 25° C. for 4 hours. […] Finally, the permeability (Pe(10^−6 cm/sec)) was analyzed using the PAMPA explore program. The experiment was performed in three replicates. The permeability of the material was analyzed by UV measurement and LC-MS/MS, the specific conditions of which are described below.

human NOX2 = target: T1, human NOX2 (Homo sapiens, UniProt P04839); assay: Lucigenin chemiluminescence assay, drosophila membranes expressing hNOX2; format: biochemical; details: average of three repeats
T1 construct: made in house; host or cells: transgenic Drosophila (Da-GAL4 driven UAS-hNOX2, dDuox RNAi background); membranes from homogenized flies
T1 sequence (P04839 2-570 limits assumed): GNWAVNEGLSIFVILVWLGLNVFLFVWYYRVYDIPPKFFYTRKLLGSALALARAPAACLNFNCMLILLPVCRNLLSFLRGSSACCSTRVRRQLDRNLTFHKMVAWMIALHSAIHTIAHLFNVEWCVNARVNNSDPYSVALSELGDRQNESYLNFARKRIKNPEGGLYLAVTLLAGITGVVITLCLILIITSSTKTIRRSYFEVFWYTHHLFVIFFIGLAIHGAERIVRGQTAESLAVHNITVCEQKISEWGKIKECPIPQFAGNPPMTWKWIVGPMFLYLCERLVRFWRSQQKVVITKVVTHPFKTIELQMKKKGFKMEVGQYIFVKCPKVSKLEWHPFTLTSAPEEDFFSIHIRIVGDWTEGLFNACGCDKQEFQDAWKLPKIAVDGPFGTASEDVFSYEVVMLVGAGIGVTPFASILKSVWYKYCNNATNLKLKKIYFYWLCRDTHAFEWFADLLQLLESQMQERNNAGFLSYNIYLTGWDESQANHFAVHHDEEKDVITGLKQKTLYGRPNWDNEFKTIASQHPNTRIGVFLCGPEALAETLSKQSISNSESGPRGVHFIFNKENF
Description: Human NOX isozymes were provided from transgenic flies expressing human NOX isozymes from the daughterless (Da)-GAL4 promoter. The genotype of each fly line is shown below. • human NOX2:UAS-hNOX2/UAS-dDuox-RNAi; Da-GAL4/+ • human NOX4:UAS-hNOX4/UAS-dDuox-RNAi; Da-GAL4/+
Transgenic flies were homogenized in PBS containing protease inhibitors (aprotinin, leupeptin) to obtain drosophila membranes of each NOX isozyme. The membranes were incubated with the compounds (100 μM, 10 μM, 1 μM, 0.1 μM, 0.01 μM, 0.001 μM, and 0 μM) for 10 minutes in a shaker. Then, to the membranes, a mixture of 500 μM NADPH (R-nicotinamide adenine dinucleotide 2′-phosphate reduced tetrasodium salt hydrate; Sigma-Aldrich) and 400 μM lucigenin (N,N′-dimethyl-9,9-biacridinium dinitrate; Sigma-Aldrich) in 1× HEPES (4-(2-hydroxyethyl)-1-piperazineethanesulfonic acid) buffer was added. Lucigenin chemiluminescence was detected at 1-minute intervals for 10 minutes using a multimode microplate reader (SpectraMax iD3, Molecular Devices). IC50 values were calculated with Graph-Pad Prism 5 (GraphPad Software).
The lucigenin chemiluminescence assay was performed with drosophila membranes expressing hNOX1, hNOX2, and hNOX4. The assay was repeated three times and the IC50 values were averaged.

SMILES: O=C(Nc1nnc(-c2ccccc2)o1)c1ccc(F)c(C(F)(F)F)c1 [Example 2, 4-fluoro-N-(5-phenyl-1,3,4-oxadiazol-2-yl)-3-(trifluoromethyl)benzamide]
- production of reactive oxygen species (BV2 cells): significantly reduced
- IC50 at 24 h [1]: 1100 µM
- IC50 at 24 h [2]: 5.5 µM
- Papp at 4 h, 10 μM (PAMPA-BBB assay; 10 μM): > 0.4 ×10⁻⁶ cm/s
- IC50 (human NOX2): 0.26 µM

SMILES: O=C(Nc1nnc(-c2cccc(Cl)c2)o1)c1cc(F)cc(C(F)(F)F)c1 [Example 1, N-(5-(3-chlorophenyl)-1,3,4-oxadiazol-2-yl)-3-fluoro-5-(trifluoromethyl)benzamide]
- production of reactive oxygen species (BV2 cells): significantly reduced
- IC50 at 24 h [1]: 4.2 µM
- IC50 at 24 h [2]: 2 µM
- Papp at 4 h, 50 μM (PAMPA-BBB assay; 50 μM): > 0.4 ×10⁻⁶ cm/s
- IC50 (human NOX2): 0.09 µM
